Bounds are passed on as bounds.

In one experiment the test system is HCV replicon cells. As to the kind of experiment: Cell-based HCV replicon assay (replicon RNA level by real time PCR, Taqman). The following applies: Hepatitis C virus, 72 h, HCV replicon cells, harvested on day 3, replicon RNA by real time PCR; calculated EC90 reported as range class; read-out: EC90 (μM) range. The procedure, abridged:
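HCV replicon cells treated 3 days with 10 serial 2-fold compound dilutions (top 25 μM to 1 μM; 0.5% DMSO, 10% FBS). Replicon RNA quantified by multiplex Taqman RT-PCR (NS5B amplicon, GAPDH control); EC50 and EC90 = concentrations giving ΔCT of 1 and 3.2 over baseline.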
In general, EC90 refers to the concentration at which the effect reaches the 90% level. As for `CCc1cc2cc(-c3c(Cl)nc(NCC4CC4)nc3N[C@@H]3C[C@H](CO)[C@@H](O)[C@H]3O)oc2cn1` [Example 503], the EC90 was < 0.5 µM.

As for `OC[C@H]1C[C@@H](Nc2nc(NCC3CC3)nc(Cl)c2-c2nc3ccccc3s2)[C@H](O)[C@@H]1O` [Example 504], the EC90 was < 0.5 µM.

As to `Cc1nc(NCC2CC2)nc(N[C@@H]2C[C@H](CO)[C@@H](O)[C@H]2O)c1-c1nc2ccccc2s1` [Example 505], the EC90 was < 0.5 µM.

Take `CCC(C)(C)Nc1nc(Cl)c(-c2nc3ccccc3s2)c(N[C@@H]2C[C@H](CO)[C@@H](O)[C@H]2O)n1` [Example 506]: the EC90 is < 0.5 µM.

For the compound `CC(=O)N1CCC(Nc2nc(Cl)c(-c3nc4ccccc4s3)c(N[C@@H]3C[C@H](CO)[C@@H](O)[C@H]3O)n2)CC1` [Example 507], the EC90 was < 0.5 µM.

As to `CCc1cc2cc(-c3c(C)nc(NCCOC)nc3N[C@@H]3C[C@H](CO)[C@@H](O)[C@H]3O)oc2cn1` [Example 508], the EC90 was < 0.5 µM.

As to `CCc1cc2cc(-c3c(C)nc(NCC4CC4)nc3N[C@@H]3C[C@H](CO)[C@@H](O)[C@H]3O)oc2cn1` [Example 509], the EC90 was < 0.5 µM.

As to `OC[C@H]1C[C@@H](Nc2nc(NC3CCNCC3)nc(Cl)c2-c2nc3ccccc3s2)[C@H](O)[C@@H]1O` [Example 510], the concentration for an effect of 90% (EC90) was > 5 µM.

With `CCCCCNc1nc(Cl)c(-c2cc3cc(CC)ncc3o2)c(N[C@@H]2C[C@H](CO)[C@@H](O)[C@H]2O)n1` [Example 511], the 90% effect concentration (EC90) was < 0.5 µM.

`CCOCCNc1nc(Cl)c(-c2cc3cc(CC)ncc3o2)c(N[C@@H]2C[C@H](CO)[C@@H](O)[C@H]2O)n1` [Example 512]: the EC90 was < 0.5 µM.

Consider `CCC(C)(C)Nc1nc(C)c(-c2nc3ccccc3s2)c(N[C@@H]2C[C@H](CO)[C@@H](O)[C@H]2O)n1` [Example 513], for which the EC90 was < 0.5 µM.

Regarding `CCCCCNc1nc(C)c(-c2cc3cc(CC)ncc3o2)c(N[C@@H]2C[C@H](CO)[C@@H](O)[C@H]2O)n1` [Example 514], the EC90 is < 0.5 µM.

Take `CCOCCNc1nc(C)c(-c2cc3cc(CC)ncc3o2)c(N[C@@H]2C[C@H](CO)[C@@H](O)[C@H]2O)n1` [Example 515]: the EC90 is < 0.5 µM.

Consider `CCc1cc2cc(-c3c(Cl)nc(NCC(F)(F)F)nc3N[C@@H]3C[C@H](CO)[C@@H](O)[C@H]3O)oc2cn1` [Example 516], for which the EC90 is < 0.5 µM.

For `CCc1cc2cc(-c3c(C)nc(NCC(F)(F)F)nc3N[C@@H]3C[C@H](CO)[C@@H](O)[C@H]3O)oc2cn1` [Example 517], the EC90 was < 0.5 µM.

On to `CCc1cc2cc(-c3c(Cl)nc(NCC(C)C)nc3N[C@@H]3C[C@H](CO)[C@@H](O)[C@H]3O)oc2cn1` [Example 518], for which the EC90 is < 0.5 µM.

Regarding `CCc1cc2cc(-c3c(C)nc(NCC(C)C)nc3N[C@@H]3C[C@H](CO)[C@@H](O)[C@H]3O)oc2cn1` [Example 519], the EC90 was < 0.5 µM.

In the case of `CCc1cc2cc(-c3c(Cl)nc(NCCC(F)(F)F)nc3N[C@@H]3C[C@H](CO)[C@@H](O)[C@H]3O)oc2cn1` [Example 520], the EC90 was < 0.5 µM.

For the compound `CCc1cc2cc(-c3c(C)nc(NCCC(F)(F)F)nc3N[C@@H]3C[C@H](CO)[C@@H](O)[C@H]3O)oc2cn1` [Example 521], the EC90 is < 0.5 µM.

Take `CN(C)c1nc(Cl)c(-c2cc3ccncc3o2)c(N[C@@H]2C[C@H](CO)[C@@H](O)[C@H]2O)n1` [Example 522]: the EC90 was 0.5 to 5 µM.

As to `Cc1nc(NCC2CC2)nc(N[C@@H]2C[C@H](CO)[C@@H](O)[C@H]2O)c1-c1nc2cnccc2s1` [Example 523], the EC90 was < 0.5 µM.

The experiment is the same for the next values; noted with them: Hepatitis C virus, 72 h, HCV replicon cells, replicon RNA level by real time PCR (Taqman), harvested on day 3; calculated EC90 reported as range class; read-out: EC90 (μM) range.
For `CCOCCNc1nc(C)c(-c2nc3cnccc3s2)c(N[C@@H]2C[C@H](CO)[C@@H](O)[C@H]2O)n1` [Example 525], the EC90 is < 0.5 µM.

On to `COCCNc1nc(C)c(-c2nc3cnccc3s2)c(N[C@@H]2C[C@H](CO)[C@@H](O)[C@H]2O)n1` [Example 526], for which the 90% effect concentration (EC90) is < 0.5 µM.

Take `CCc1cc2cc(-c3c(C)nc(NC)nc3N[C@@H]3C[C@H](CO)[C@@H](O)[C@H]3O)oc2cn1` [Example 527]: the EC90 is < 0.5 µM.

(Values after US8697694B2, “Substituted pyridine and pyrimidine derivatives and their use in treating viral infections” (priority 2008, dated 2014).)
